# Measured values taken from US10633358B2, “T-type calcium channel inhibitor” (KINKI UNIVERSITY, priority 2013, dated 2020).
# Like-named read-outs stand apart in the source and are kept apart here.
# Tests used:
# [1] = target: human T-type calcium channel (Homo sapiens, UniProt O95180); assay: cell-based
# Description: A T-type calcium channel inhibitory action of sophoraflavanone G was measured by a whole-cell patch method using a human renal cell-derived cell line: […] cell forced to express a human T-type calcium channel.
# In the whole-cell patch method, a barium current passing as an inward current was measured in a potential jump from −80 mV to −20 mV with the holding potential set to −80 mV using, as an external solution and an internal solution, ones having the compositions shown below. Here, for eliminating influences of a high-threshold-activated-type calcium channel, a value obtained by subtracting from a peak current a current 150 ms after the start of stimulation was used as a T-current for data analysis.
# External Solution Composition
# Aqueous solution containing the following: 97 mM N-methyl-D-glucamine (NMDG);
# 10 mM 4-(2-hydroxyethyl)-1-piperazine ethanesulfonic acid (HEPES);
# 40 mM tetraethylammonium chloride (TEA-Cl); and
# Internal Solution Composition
# Aqueous solution containing the following:
# 5 mM glycol ether diamine tetraacetic acid (EGTA)
# In FIG. 1, the data are shown as a ratio (%) of a T-current at addition of a compound to a T-current at addition of a solvent (DMSO).
# Except that sophoraflavanone G was replaced by 6-prenylnaringenin, the same procedure as in Example 1 was carried out to measure a T-type calcium channel inhibitory action of […].
# Except that sophoraflavanone G was replaced by 8-prenylnaringenin, the same procedure as in Example 1 was carried out to measure a T-type calcium channel inhibitory action of […].
# These […] values are values calculated by GraphPad Prism® (GraphPad Software, Inc.) using the results of Examples 1 to 3.
# [2] = system: NaHS-induced hyperalgesia; assay: Action on NaHS-induced hyperalgesia, up-and-down method using a von Frey filament; format: in vivo; settings: male ddY mouse; for Action on NaHS-induced hyperalgesia (in words): paw sole administration
# Description: Into the paw sole of a male ddY mouse, 0.1 nmol/paw (volume: 10 μL/paw) of NaHS (sodium hydrogen sulfide) was administered alone, […], and an action of sophoraflavanone G on NaHS-induced hyperalgesia was measured by an up-and-down method using a von Frey filament.
# Here, NaHS (sodium hydrogen sulfide) is used as a H2S donor. H2S is a hyperalgesia-inducing substance which is involved in information transmission of pain through a Cav3.2 T-type calcium channel (see Kawabata A. et al. Hydrogen sulfide as a novel nociceptive messenger. Pain. 2007 November; 132(1-2): 74-81. Epub 2007 Mar. 7.).
# Except that 6-prenylnaringenin was used in place of sophoraflavanone G, the same procedure as in Example 4 was carried out to measure an action of 6-prenylnaringenin on NaHS-induced hyperalgesia.
# Except that 8-prenylnaringenin was used in place of sophoraflavanone G, the same procedure as in Example 4 was carried out to measure an action of 8-prenylnaringenin on NaHS-induced hyperalgesia.
# L-type Ca2+ channel = target: T1, L-type Ca2+ channel (Rattus norvegicus, UniProt P22002); assay: K50-induced contraction in a ring preparation of a rat aorta (endothelium removed); format: cell-based; settings: for Selectivity T-type over L-type calcium channel (in words): conclusion from Examples 1-3 and 7-9; for inhibition at 0.001 µM / inhibition at 0.003 µM / inhibition at 0.01 µM / inhibition at 0.03 µM / inhibition at 0.1 µM / inhibition at 0.3 µM / inhibition at 1 µM / inhibition at 3 µM: read-out: Inhibitory rate (%) on contraction by K50; for Action on L-type calcium channel (in words): specimen pre-contracted by K50, up to 3 μM
# T1 construct: A 1 mm-wide ring preparation was prepared from the thoracic aorta; from tissue; host or cells: thoracic aorta ring preparation (endothelium removed) of male Wistar rats
# Description: For the experiment, 7 to 10 week-old male Wistar rats (Japan SLC, Inc., Shizuoka, Japan) were used. These experimental animals were bred in a chamber with a 12-hour light-dark cycle maintained at a temperature of about 24° C. while they were allowed to freely take tap water and a solid feed (Oriental Yeast Co., Ltd., Tokyo, Japan).
# The rats were caused to hemorrhage to death by cutting the carotid artery under anesthesia, and the thoracic aorta was extracted. Connective tissues and fat were removed from the thoracic aorta in a cooled modified Kreb's liquid. A 1 mm-wide ring preparation was prepared from the thoracic aorta, and the lumen of the specimen was rubbed with rubber to remove the endothelium.
# Two 100 μm tungsten wires were inserted into the lumen of the 1 mm-wide ring preparation, and the ring preparation was transferred to a liquid bath with a volume of 10 mL. […] The other ends of tungsten wires inserted into the lumen of the ring preparation were fixed to a tension transducer, and a change in tension of the specimen was isometrically measured. Signals from the tension transducer passed through a blood pressure amplifier to be recorded by a pen recorder. An initial stretching tension of 1 g was applied in a normal Kreb's liquid, and the specimen was equilibrated for 1 hour, and then caused to contract once by a 10^−6 M phenylephrine solution. This procedure was necessary for obtaining stable results. At the end of the experiment, verapamil (Vera) (10^−5 M) and papaverine (10^−4 M) were added to completely relax the specimen. The level at this time was set to 0 for all the measurements of a change in tension.
# The reagents used were as follows. • Normal Kreb's liquid: NaCl (118 mM), KCl (4.7 mM), CaCl2 (2.5 mM), MgCl2 (1.2 mM), NaHCO3 (25 mM), KH2PO4 (1.2 mM) and glucose (10 mM) were diluted with H2O to 1 L, and ventilated for 10 minutes with a mixed gas of 95% of O2 and 5% of CO2, and 2.5 mL of a 1 M CaCl2 solution was then added. • Kreb's liquid (K50): NaCl (73.9 mM), KCl (48.8 mM), CaCl2 (2.5 mM), MgCl2 (1.2 mM), NaHCO3 (25 mM), KH2PO4 (1.2 mM) and glucose (10 mM) were diluted with H2O to 1 L, and ventilated for 10 minutes with a mixed gas of 95% of O2 and 5% of CO2, and 2.5 mL of a 1 M CaCl2 solution was then added. • Acetylcholine hydrochloride (Ach, manufactured by Sigma) • Verapamil hydrochloride (Vera, manufactured by Eisai Co., Ltd. (Tokyo)) • Papaverine hydrochloride (manufactured by Sigma) 5. Results
# Thereafter, the specimen was washed three times with the Normal Kreb's liquid, and to the specimen caused to pre-contract by the Kreb's liquid (K50) containing 50 mM potassium ions, 1 μL of 1 μM of sophoraflavanone G (final concentration: 0.001 μM) dissolved in DMSO, 2 μL of 1 μM of the sophoraflavanone G (final concentration: 0.003 μM), 7 μL of 1 μM of the sophoraflavanone G (final concentration: 0.01 μM), 2 μL of 10 μM of the sophoraflavanone G (final concentration: 0.03 μM), 7 μL of 10 μM of the sophoraflavanone G (final concentration: 0.1 μM), 2 μL of 10 μM of the sophoraflavanone G (final concentration: 0.3 μM), 7 μL of 100 μM of the sophoraflavanone G (final concentration: 1 μM) and […] of the sophoraflavanone G (final concentration: 3 μM) were accumulatively added in a liquid bath containing 10 mL of the Kreb's liquid.
# Except that 6-prenylnaringenin was used in place of sophoraflavanone G, the same procedure as in Example 7 was carried out to examine effects on an L-type Ca^2+ channel.
# Except that 8-prenylnaringenin was used in place of sophoraflavanone G, the same procedure as in Example 7 was carried out to examine effects on an L-type Ca^2+ channel.
# [3] = HEK293, read-out: Inhibition rate (%)
# [4] = NaHS 0.1 nmol/paw sole + compound 0.1 nmol/paw sole
# [5] = NaHS 0.1 nmol/paw sole + compound 1 nmol/paw sole
# [6] = NaHS 0.1 nmol/paw sole + compound 10 nmol/paw sole
# [7] = 0.001 μM final concentration, accumulatively added, rat aorta ring
# [8] = 0.003 μM final concentration, accumulatively added, rat aorta ring
# [9] = 0.01 μM final concentration, accumulatively added, rat aorta ring
# [10] = 0.03 μM final concentration, accumulatively added, rat aorta ring
# [11] = 0.1 μM final concentration, accumulatively added, rat aorta ring
# [12] = 0.3 μM final concentration, accumulatively added, rat aorta ring
# [13] = 1 μM final concentration, accumulatively added, rat aorta ring
# [14] = 3 μM final concentration, accumulatively added, rat aorta ring
# T1 sequence (P22002 whole entry): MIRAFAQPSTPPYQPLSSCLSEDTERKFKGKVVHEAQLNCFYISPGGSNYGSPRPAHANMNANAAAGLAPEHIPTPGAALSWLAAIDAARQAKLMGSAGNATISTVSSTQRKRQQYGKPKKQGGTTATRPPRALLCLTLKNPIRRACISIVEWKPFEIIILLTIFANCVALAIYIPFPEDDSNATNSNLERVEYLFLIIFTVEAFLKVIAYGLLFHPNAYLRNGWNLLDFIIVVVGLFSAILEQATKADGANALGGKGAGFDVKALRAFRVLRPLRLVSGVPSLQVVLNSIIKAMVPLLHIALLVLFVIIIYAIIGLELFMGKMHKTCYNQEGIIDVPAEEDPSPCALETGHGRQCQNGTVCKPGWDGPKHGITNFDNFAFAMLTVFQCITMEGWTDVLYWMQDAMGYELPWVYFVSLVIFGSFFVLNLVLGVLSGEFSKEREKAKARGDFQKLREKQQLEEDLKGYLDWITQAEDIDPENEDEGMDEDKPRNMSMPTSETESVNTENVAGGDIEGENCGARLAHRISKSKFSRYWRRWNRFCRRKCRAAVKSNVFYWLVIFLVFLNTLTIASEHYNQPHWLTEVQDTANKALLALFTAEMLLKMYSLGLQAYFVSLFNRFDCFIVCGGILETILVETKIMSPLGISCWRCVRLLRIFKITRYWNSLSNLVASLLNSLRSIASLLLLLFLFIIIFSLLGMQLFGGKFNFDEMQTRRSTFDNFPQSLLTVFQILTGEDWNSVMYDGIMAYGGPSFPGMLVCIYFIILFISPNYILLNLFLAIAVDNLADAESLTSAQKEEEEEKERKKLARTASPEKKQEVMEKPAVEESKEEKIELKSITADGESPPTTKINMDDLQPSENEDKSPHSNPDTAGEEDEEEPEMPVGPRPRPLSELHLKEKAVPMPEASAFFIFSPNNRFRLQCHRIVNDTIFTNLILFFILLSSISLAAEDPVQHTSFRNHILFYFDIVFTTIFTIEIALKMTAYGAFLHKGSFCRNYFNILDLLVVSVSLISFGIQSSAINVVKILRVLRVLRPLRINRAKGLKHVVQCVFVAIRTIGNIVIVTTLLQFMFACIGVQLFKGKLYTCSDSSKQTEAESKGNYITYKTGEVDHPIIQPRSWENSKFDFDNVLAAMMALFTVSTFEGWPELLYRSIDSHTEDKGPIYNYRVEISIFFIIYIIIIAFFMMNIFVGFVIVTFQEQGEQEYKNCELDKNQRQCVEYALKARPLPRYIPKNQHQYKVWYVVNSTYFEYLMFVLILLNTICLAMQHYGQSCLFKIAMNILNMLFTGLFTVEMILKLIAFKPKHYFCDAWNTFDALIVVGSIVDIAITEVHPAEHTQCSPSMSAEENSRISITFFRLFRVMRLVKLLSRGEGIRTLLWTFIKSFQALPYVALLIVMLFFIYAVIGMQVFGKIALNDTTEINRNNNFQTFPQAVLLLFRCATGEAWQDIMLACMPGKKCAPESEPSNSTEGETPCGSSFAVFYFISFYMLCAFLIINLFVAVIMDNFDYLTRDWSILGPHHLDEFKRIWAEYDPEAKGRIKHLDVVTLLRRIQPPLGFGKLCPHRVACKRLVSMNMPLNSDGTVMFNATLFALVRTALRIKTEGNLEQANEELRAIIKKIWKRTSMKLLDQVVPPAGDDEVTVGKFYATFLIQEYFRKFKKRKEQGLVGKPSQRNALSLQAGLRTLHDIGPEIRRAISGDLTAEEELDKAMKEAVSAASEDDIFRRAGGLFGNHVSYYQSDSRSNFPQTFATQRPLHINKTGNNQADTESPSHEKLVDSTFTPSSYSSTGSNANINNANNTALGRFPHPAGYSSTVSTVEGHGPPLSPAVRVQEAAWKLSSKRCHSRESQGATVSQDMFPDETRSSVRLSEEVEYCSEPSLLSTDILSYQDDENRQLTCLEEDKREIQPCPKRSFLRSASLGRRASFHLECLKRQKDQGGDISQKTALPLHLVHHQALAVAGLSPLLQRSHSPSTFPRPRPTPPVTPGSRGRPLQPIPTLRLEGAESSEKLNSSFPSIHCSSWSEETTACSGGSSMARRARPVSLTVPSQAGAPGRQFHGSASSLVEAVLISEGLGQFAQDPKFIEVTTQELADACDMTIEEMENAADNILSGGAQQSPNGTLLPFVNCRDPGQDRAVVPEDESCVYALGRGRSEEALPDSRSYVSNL
# T1 sequence (P54290 25-944 partner limits assumed): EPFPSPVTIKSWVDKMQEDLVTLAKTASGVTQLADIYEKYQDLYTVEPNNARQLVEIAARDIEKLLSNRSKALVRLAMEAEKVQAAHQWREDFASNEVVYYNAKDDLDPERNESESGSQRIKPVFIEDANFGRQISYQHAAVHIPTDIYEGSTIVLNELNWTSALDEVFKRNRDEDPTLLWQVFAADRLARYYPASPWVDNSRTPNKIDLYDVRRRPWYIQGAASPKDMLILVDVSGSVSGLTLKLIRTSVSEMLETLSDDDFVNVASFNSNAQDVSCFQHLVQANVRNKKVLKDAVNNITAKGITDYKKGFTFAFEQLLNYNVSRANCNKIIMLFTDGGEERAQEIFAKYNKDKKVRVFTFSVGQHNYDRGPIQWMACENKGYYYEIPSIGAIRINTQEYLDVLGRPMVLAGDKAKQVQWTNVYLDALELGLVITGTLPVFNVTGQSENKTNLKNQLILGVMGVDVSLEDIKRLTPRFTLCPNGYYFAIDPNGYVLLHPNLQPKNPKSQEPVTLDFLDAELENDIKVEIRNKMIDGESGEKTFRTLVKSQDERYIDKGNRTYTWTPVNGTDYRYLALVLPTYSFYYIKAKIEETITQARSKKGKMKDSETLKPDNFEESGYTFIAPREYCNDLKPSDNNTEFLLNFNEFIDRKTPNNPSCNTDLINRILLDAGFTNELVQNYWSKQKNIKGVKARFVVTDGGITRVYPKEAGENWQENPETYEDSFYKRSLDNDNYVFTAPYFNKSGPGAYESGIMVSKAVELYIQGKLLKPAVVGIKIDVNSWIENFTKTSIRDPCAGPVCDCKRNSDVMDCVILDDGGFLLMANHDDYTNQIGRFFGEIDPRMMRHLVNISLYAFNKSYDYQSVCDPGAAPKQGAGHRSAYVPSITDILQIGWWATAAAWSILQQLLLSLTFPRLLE
# T1 sequence (P54290 945-1091 partner limits assumed): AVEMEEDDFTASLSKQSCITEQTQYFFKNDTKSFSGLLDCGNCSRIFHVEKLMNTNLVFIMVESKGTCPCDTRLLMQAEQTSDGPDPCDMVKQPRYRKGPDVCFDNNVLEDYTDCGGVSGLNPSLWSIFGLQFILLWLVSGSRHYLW
Structure (SMILES),"inhibition at 1 µM [1, 3] [%]","inhibition at 3 µM [1, 3] [%]","Hyperalgesia threshold (g) Average value ± standard error [2, 4] [g]","Hyperalgesia threshold (g) Average value ± standard error [2, 5] [g]","Hyperalgesia threshold (g) Average value ± standard error [2, 6] [g]",Action on NaHS-induced hyperalgesia (in words) [2],Selectivity T-type over L-type calcium channel (in words) (L-type Ca2+ channel),Action on L-type calcium channel (in words) (L-type Ca2+ channel),inhibition at 0.001 µM (L-type Ca2+ channel; [7]) [%],inhibition at 0.003 µM (L-type Ca2+ channel; [8]) [%],inhibition at 0.01 µM (L-type Ca2+ channel; [9]) [%],inhibition at 0.03 µM (L-type Ca2+ channel; [10]) [%],inhibition at 0.1 µM (L-type Ca2+ channel; [11]) [%],inhibition at 0.3 µM (L-type Ca2+ channel; [12]) [%],inhibition at 1 µM (L-type Ca2+ channel; [13]) [%],inhibition at 3 µM (L-type Ca2+ channel; [14]) [%],also measured
"CC(C)=CCc1c(O)cc2c(c1O)C(=O)C[C@@H](c1ccc(O)cc1)O2 [6-Prenylnaringenin, (2S)-5,7-dihydroxy-2,3-dihydro-2-(4-hydroxyphenyl)-6-(3-methyl-2-butenyl)-4H-1-benzopyran-4-one]",82.7,99,0.28 ± 0.07,0.31 ± 0.06,0.52 ± 0.09,inhibits NaHS-induced hyperalgesia,T-type calcium channel-specific inhibitor,does not act on an L-type calcium channel,–,–,–,–,–,–,–,–,"inhibition at 0.3 µM [1, 3]: 0%; inhibition at 0.001 µM (L-type Ca2+ channel): 0%; inhibition at 0.003 µM (L-type Ca2+ channel): 0%; inhibition at 0.01 µM (L-type Ca2+ channel): 4.1%; inhibition at 0.03 µM (L-type Ca2+ channel): 6.1%; inhibition at 0.1 µM (L-type Ca2+ channel): 4.1%; inhibition at 0.3 µM (L-type Ca2+ channel): 4.1%; inhibition at 1 µM (L-type Ca2+ channel): 4.1%; inhibition at 3 µM (L-type Ca2+ channel): 4.1%"
"CC(C)=CCc1c(O)cc(O)c2c1O[C@H](c1ccc(O)cc1)CC2=O [8-Prenylnaringenin, (2S)-5,7-dihydroxy-2,3-dihydro-2-(4-hydroxyphenyl)-8-(3-methyl-2-butenyl)-4H-1-benzopyran-4-one]",–,–,0.23 ± 0.04,0.41 ± 0.04,0.55 ± 0.05,inhibits NaHS-induced hyperalgesia,T-type calcium channel-specific inhibitor,does not act on an L-type calcium channel,0,0,7.4,0,11.1,14.8,22.2,25.9,"inhibition at 0.3 µM ([1]; HEK293, compound concentration 300 nM, T-current, HEK 293 cell expressing human T-type calcium channel, read-out: Inhibition rate (%)): 16.4%; inhibition at 1 µM ([1]; HEK293, compound concentration 1000 nM, T-current, HEK 293 cell expressing human T-type calcium channel, read-out: Inhibition rate (%)): 64.9%; inhibition at 3 µM ([1]; HEK293, compound concentration 3000 nM, T-current, HEK 293 cell expressing human T-type calcium channel, read-out: Inhibition rate (%)): 91%; inhibition at 10 µM ([1]; HEK293, compound concentration 10000 nM, T-current, HEK 293 cell expressing human T-type calcium channel, read-out: Inhibition rate (%)): 99.9%"
"C=C(C)[C@H](CC=C(C)C)Cc1c(O)cc(O)c2c1O[C@H](c1ccc(O)cc1O)CC2=O [Sophoraflavanone G, (2S)-5,7-dihydroxy-2,3-dihydro-2-(2,4-dihydroxyphenyl)-8-[(R)-5-methyl-2-(1-methylethenyl)-4-hexenyl]-4H-1-benzopyran-4-one]",61.1,97.7,–,–,–,inhibits NaHS-induced hyperalgesia,T-type calcium channel-specific inhibitor,does not act on an L-type calcium channel,0,0,5.6,5.6,5.6,5.6,11.1,8.3,"inhibition at 0.5 µM [1, 3]: 25.9%; Hyperalgesia threshold (g) Average value ± standard error ([2]; NaHS 0.1 nmol/paw sole + compound 1 pmol/paw sole): 0.11 ± 0.04 g; Hyperalgesia threshold (g) Average value ± standard error ([2]; NaHS 0.1 nmol/paw sole + compound 10 pmol/paw sole): 0.35 ± 0.07 g; Hyperalgesia threshold (g) Average value ± standard error ([2]; NaHS 0.1 nmol/paw sole + compound 30 pmol/paw sole): 0.34 ± 0.10 g"
